Reference: US8697739B2, “Bicyclic acetyl-CoA carboxylase inhibitors and uses thereof” (Novartis AG, priority 2010, dated 2014)

What follows are compounds tested against T1, human acetyl-CoA carboxylase 2 (ACC2) (Homo sapiens, UniProt O00763) (assay: Acetyl-CoA carboxylase enzyme assay (malonyl-CoA formation by LC/MS/MS)). Details: recombinant human ACC2 (aa 144-2458); read-out: IC50 ACC2.
T1 construct: The cDNA encoding amino acids 144 to 2458 of human acetyl-CoA carboxylase 2; made in house; host or cells: Sf9 insect cells (baculovirus, pFastBac1)
T1 sequence (O00763 144-2458): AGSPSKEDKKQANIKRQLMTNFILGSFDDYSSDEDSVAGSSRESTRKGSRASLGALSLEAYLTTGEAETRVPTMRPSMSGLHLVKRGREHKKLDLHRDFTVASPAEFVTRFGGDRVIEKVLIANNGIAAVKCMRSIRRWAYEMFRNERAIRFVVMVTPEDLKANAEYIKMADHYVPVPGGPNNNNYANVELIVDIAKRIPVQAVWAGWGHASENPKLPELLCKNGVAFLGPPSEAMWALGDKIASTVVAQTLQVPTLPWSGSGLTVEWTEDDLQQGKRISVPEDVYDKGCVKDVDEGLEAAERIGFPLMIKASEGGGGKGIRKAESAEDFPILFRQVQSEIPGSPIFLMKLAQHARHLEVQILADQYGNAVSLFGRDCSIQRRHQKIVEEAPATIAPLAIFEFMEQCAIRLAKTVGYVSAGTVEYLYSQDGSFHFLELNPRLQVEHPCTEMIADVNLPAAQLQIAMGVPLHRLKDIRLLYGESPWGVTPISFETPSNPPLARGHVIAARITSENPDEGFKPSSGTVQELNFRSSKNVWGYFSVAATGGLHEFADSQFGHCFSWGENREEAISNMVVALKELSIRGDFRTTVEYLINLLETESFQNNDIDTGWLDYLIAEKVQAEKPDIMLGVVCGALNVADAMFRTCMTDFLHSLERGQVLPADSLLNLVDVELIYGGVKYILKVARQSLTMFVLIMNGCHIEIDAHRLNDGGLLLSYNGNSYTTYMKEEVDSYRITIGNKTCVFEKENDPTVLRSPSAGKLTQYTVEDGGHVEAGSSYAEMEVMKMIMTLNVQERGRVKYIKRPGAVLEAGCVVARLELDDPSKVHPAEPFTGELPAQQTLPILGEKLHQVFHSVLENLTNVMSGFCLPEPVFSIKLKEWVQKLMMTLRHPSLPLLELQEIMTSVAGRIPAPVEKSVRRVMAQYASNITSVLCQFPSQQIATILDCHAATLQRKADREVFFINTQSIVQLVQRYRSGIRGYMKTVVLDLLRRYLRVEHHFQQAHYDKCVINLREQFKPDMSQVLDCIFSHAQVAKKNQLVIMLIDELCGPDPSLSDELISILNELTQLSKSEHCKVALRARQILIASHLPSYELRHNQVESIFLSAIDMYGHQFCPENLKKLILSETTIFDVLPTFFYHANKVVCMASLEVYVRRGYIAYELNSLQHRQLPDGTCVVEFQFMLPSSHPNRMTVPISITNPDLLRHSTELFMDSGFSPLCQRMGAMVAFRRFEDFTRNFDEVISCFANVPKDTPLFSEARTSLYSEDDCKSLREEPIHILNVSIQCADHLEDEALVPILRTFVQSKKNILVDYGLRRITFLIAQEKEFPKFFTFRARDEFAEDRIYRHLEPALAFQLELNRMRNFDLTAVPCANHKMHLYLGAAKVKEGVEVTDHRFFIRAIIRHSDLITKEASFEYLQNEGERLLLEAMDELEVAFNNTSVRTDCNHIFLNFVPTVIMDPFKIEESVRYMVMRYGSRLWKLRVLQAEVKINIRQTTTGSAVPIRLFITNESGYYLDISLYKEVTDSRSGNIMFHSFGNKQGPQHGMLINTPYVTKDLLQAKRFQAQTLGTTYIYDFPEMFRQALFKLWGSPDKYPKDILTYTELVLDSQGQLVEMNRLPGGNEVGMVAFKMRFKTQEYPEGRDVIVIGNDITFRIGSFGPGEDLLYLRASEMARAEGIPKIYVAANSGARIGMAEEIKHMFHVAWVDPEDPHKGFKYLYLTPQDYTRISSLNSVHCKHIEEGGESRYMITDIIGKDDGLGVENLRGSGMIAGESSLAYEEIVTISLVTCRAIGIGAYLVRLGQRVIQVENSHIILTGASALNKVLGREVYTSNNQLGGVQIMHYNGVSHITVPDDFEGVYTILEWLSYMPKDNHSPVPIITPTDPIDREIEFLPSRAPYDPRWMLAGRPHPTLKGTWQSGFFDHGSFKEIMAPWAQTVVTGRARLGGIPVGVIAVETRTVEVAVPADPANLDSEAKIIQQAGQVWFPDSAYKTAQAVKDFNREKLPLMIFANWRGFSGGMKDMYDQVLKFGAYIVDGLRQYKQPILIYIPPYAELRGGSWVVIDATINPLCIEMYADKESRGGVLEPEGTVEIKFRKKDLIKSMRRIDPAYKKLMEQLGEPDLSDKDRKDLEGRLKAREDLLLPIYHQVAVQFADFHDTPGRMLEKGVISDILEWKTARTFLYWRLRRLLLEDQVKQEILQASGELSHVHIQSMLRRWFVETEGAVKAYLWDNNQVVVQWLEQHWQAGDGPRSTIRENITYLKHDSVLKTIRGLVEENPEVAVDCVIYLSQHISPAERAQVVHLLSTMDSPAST
Type: biochemical
How it was run: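 Malonyl-CoA formation was read by LC/MS/MS MRM against a [13C3]-malonyl-CoA internal standard, after acetic acid quench. The enzyme was baculovirus/Sf9-expressed human ACC2 residues 144–2458, given 15 minutes room-temperature compound preincubation in HEPES pH 7.5 buffer with MgCl2, citrate and DTT. Substrate solution held 50 μM acetyl-CoA, 120 μM ATP and 2 mM KHCO3.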

SMILES | IC50 [nM]
COC[C@@H](NC(=O)[C@H]1CC[C@H](NS(=O)(=O)c2ccc3cc(-c4ccccc4)n(C)c3c2)CC1)c1ccccc1 [Example 423, (1r,4S)-N-((S)-2-methoxy-1-phenylethyl)-4-(1-methyl-2-phenyl-1H-indole-6-sulfonamido)cyclohexanecarboxamide] | 40
CCC1(CC)CN(C(=O)[C@H]2CC[C@H](NS(=O)(=O)c3ccc4cc(-c5ccccc5)n(C)c4c3)CC2)CCO1 [Example 424, N-((1r,4r)-4-(2,2-diethylmorpholine-4-carbonyl)cyclohexyl)-1-methyl-2-phenyl-1H-indole-6-sulfonamide] | 50
C[C@H]1COCCN1C(=O)[C@H]1CC[C@H](NS(=O)(=O)c2ccc3cc(-c4ccccc4)n(C)c3c2)CC1 [Example 425, 1-methyl-N-((1S,4r)-4-((S)-3-methylmorpholine-4-carbonyl)cyclohexyl)-2-phenyl-1H-indole-6-sulfonamide] | 30
C[C@H]1COCCN1C(=O)[C@H]1CC[C@H](NS(=O)(=O)c2ccc3c(Cl)c(C4CC4)n(C)c3c2)CC1 [Example 426, 3-chloro-2-cyclopropyl-1-methyl-N-((1S,4r)-4-((S)-3-methylmorpholine-4-carbonyl)cyclohexyl)-1H-indole-6-sulfonamide] | 55
C[C@H]1COCCN1C(=O)[C@H]1CC[C@H](NS(=O)(=O)c2ccc3cc(-c4ccc(CCC(=O)O)cc4)n(C)c3c2)CC1 [Example 427, 3-(4-(1-methyl-6-(N-((1S,4r)-4-((S)-3-methylmorpholine-4-carbonyl)cyclohexyl)sulfamoyl)-1H-indol-2-yl)phenyl)propanoic acid] | 15
C[C@H]1COCCN1C(=O)[C@H]1CC[C@H](NS(=O)(=O)c2ccc3c(Cl)c(-c4ccc(CCC(=O)O)cc4)n(C)c3c2)CC1 [Example 428, 3-(4-(3-chloro-1-methyl-6-(N-((1S,4r)-4-((S)-3-methylmorpholine-4-carbonyl)cyclohexyl)sulfamoyl)-1H-indol-2-yl)phenyl)propanoic acid] | < 10
Cn1c(-c2ccc(CCC(=O)O)cc2)c(C#N)c2ccc(S(=O)(=O)N[C@H]3CC[C@H](C(=O)N4CCC[C@H]4C(C)(C)C)CC3)cc21 [Example 429, 3-(4-(6-(N-((1S,4r)-4-((S)-2-tert-butylpyrrolidine-1-carbonyl)cyclohexyl)sulfamoyl)-3-cyano-1-methyl-1H-indol-2-yl)phenyl)propanoic acid] | 75
Cn1c(-c2ccc(CCC(=O)O)cc2)c(C#N)c2ccc(S(=O)(=O)N[C@H]3CC[C@H](C(=O)N4CCC[C@@H]4C(C)(C)C)CC3)cc21 [Example 430, 3-(4-(6-(N-((1R,4r)-4-((R)-2-tert-butylpyrrolidine-1-carbonyl)cyclohexyl)sulfamoyl)-3-cyano-1-methyl-1H-indol-2-yl)phenyl)propanoic acid] | < 10
Cn1c(-c2ccccc2)cc2ccc(S(=O)(=O)N[C@H]3CC[C@H](C(=O)N4CCC[C@@H]4CO)CC3)cc21 [Example 432, N-((1R,4r)-4-((R)-2-(hydroxymethyl)pyrrolidine-1-carbonyl)cyclohexyl)-1-methyl-2-phenyl-1H-indole-6-sulfonamide] | 95
Cn1c(-c2ccccc2)cc2ccc(S(=O)(=O)N[C@H]3CC[C@H](C(=O)N4CCC(O)C4)CC3)cc21 (stereo partly drawn) [Example 433, N-((1r,4r)-4-(3-hydroxypyrrolidine-1-carbonyl)cyclohexyl)-1-methyl-2-phenyl-1H-indole-6-sulfonamide] | 445
CC(C)[C@H]1COCCN1C(=O)[C@H]1CC[C@H](NS(=O)(=O)c2ccc3cc(-c4ccccc4)n(C)c3c2)CC1 [Example 434, N-((1S,4r)-4-((S)-3-isopropylmorpholine-4-carbonyl)cyclohexyl)-1-methyl-2-phenyl-1H-indole-6-sulfonamide] | 10
Cn1c(-c2ccccc2)cc2ccc(S(=O)(=O)NC3CCC(C(=O)NC4CCCCNC4=O)CC3)cc21 (stereo not drawn) [Example 435, (1r,4r)-4-(1-methyl-2-phenyl-1H-indole-6-sulfonamido)-N-(2-oxoazepan-3-yl)cyclohexanecarboxamide] | 20
COCc1ccc(-c2cc3ccc(S(=O)(=O)N[C@H]4CC[C@H](C(=O)N5CCOC[C@@H]5C)CC4)cc3[nH]2)cc1 [Example 436, 2-(4-(methoxymethyl)phenyl)-N-((1S,4r)-4-((S)-3-methylmorpholine-4-carbonyl)cyclohexyl)-1H-indole-6-sulfonamide] | 20
COCc1ccc(-c2cc3ccc(S(=O)(=O)N[C@H]4CC[C@H](C(=O)N5CCOC[C@@H]5C)CC4)cc3n2C)cc1 [Example 437, 2-(4-(methoxymethyl)phenyl)-1-methyl-N-((1S,4r)-4-((S)-3-methylmorpholine-4-carbonyl)cyclohexyl)-1H-indole-6-sulfonamide] | 40
COCc1ccc(-c2cc3ccc(S(=O)(=O)N[C@H]4CC[C@H](C(=O)N5CCOC[C@@H]5C(C)C)CC4)cc3n2C)cc1 [Example 438, N-((1S,4r)-4-((S)-3-isopropylmorpholine-4-carbonyl)cyclohexyl)-2-(4-(methoxymethyl)phenyl)-1-methyl-1H-indole-6-sulfonamide] | < 10
Cn1c(-c2ccccc2)cc2ccc(S(=O)(=O)N[C@H]3CC[C@H](C(=O)N[C@@H](c4ccccc4)C(C)(C)CO)CC3)cc21 [Example 439, (1r,4S)-N-((S)-3-hydroxy-2,2-dimethyl-1-phenylpropyl)-4-(1-methyl-2-phenyl-1H-indole-6-sulfonamido)cyclohexanecarboxamide] | < 10
COc1ccc(-c2cc3ccc(S(=O)(=O)N[C@H]4CC[C@H](C(=O)N5CCOC[C@@H]5C)CC4)cc3n2C)cc1 [Example 440, 2-(4-methoxyphenyl)-1-methyl-N-((1S,4r)-4-((S)-3-methylmorpholine-4-carbonyl)cyclohexyl)-1H-indole-6-sulfonamide] | 20
COc1ccc(-c2cc3ccc(S(=O)(=O)N[C@H]4CC[C@H](C(=O)N5CCOC[C@@H]5C(C)C)CC4)cc3n2C)cc1 [Example 441, N-((1S,4r)-4-((S)-3-isopropylmorpholine-4-carbonyl)cyclohexyl)-2-(4-methoxyphenyl)-1-methyl-1H-indole-6-sulfonamide] | < 10
Cn1c(-c2ccccc2)cc2ccc(S(=O)(=O)N[C@H]3CC[C@H](C(=O)N4CCOC(C)(C)C4)CC3)cc21 [Example 442, N-((1r,4r)-4-(2,2-dimethylmorpholine-4-carbonyl)cyclohexyl)-1-methyl-2-phenyl-1H-indole-6-sulfonamide] | 40
Cn1c(-c2ccccc2)cc2ccc(S(=O)(=O)N[C@H]3CC[C@H](C(=O)N4CCC[C@@H]4C(C)(C)O)CC3)cc21 [Example 443, N-((1R,4r)-4-((R)-2-(2-hydroxypropan-2-yl)pyrrolidine-1-carbonyl)cyclohexyl)-1-methyl-2-phenyl-1H-indole-6-sulfonamide] | 30
COCCc1ccc(-c2cc3ccc(S(=O)(=O)N[C@H]4CC[C@H](C(=O)N5CCOC[C@@H]5C)CC4)cc3n2C)cc1 [Example 444, 2-(4-(2-methoxyethyl)phenyl)-1-methyl-N-((1S,4r)-4-((S)-3-methylmorpholine-4-carbonyl)cyclohexyl)-1H-indole-6-sulfonamide] | 20
